In publication PMC4841789, “Synthesis and pharmacological evaluation of mono-arylimidamides as antileishmanial agents” (Bioorganic & Medicinal Chemistry Letters, 2016):
Where two headings read alike, the source gives them in different places.

Legend:
[1] = tested on: Intracellular L. amazonensis; assay: Efficacy against intracellular L. amazonensis amastigotes; assay type: cell-based; settings: Leishmania amazonensis
Description: (§1) Methods employed for the evaluation of the efficacy of mono-AIA target compounds against intracellular L. amazonensis[14] and intracellular L. donovani[15] and for toxicity to murine J774 macrophages[16] have been described previously. […] For ease in illustrating the antileishmanial SAR of this series of compounds, the central phenyl ring, the linker, and the terminal phenyl ring are referred to as rings A, B, and C, respectively (Fig. 1).

[2] = tested on: Intracellular L. donovani; assay: Efficacy against intracellular L. donovani amastigotes; assay type: cell-based; settings: Leishmania donovani; means ± standard errors of at least three independent experiments
Description: as §1

J774 macrophages = assay: Toxicity to murine J774 macrophages (host cell counterscreen); assay type: cell-based; settings: for IC50: Mus musculus; for selectivity index for intracellular Leishmania compared to J774 murine macrophages: IC50 vs J774 macrophages/IC50 vs Leishmania
Description: For ease in illustrating the antileishmanial SAR of this series of compounds, the central phenyl ring, the linker, and the terminal phenyl ring are referred to as rings A, B, and C, respectively (Fig. 1).

healthy BALB/c mice = assay: In vivo toxicity assessment in healthy BALB/c mice; settings: i.p. 30 mg/kg/day for 5 days, dissolved in water
Procedure: (§2) Compounds 1b, 1d, and 1k were dissolved in water and administered to healthy BALB/c mice for assessment of their in vivo toxicity. […] Animals were infected with L. donovani LV82 promastigotes and then treated with different compounds one week post infection for five consecutive days. These mice were euthanized two weeks post infection and liver smear slides were prepared for the microscopic determination of parasitemia.

L. donovani LV82 = assay: Murine model of visceral leishmaniasis (liver parasitemia); assay type: in vivo; settings: L. donovani-infected mice; for suppression (inhibition) of liver parasitemia: i.p. 30 mg/kg/day for 5 days, vs untreated control
Procedure: as §2
Compounds were administered i.p. (A and B) or p.o. (C) once daily for 5 days to infected mice. Results are presented as the percentage inhibition of liver parasitemia. Bars and error bars show the mean and standard deviation, respectively (n = 4) ^*p < 0.01, compared to untreated control, ^#p < 0.05, compared to untreated control.

[3] = Plasma and tissue concentrations after a single oral dose; assay type: in vivo; settings: mouse, mice; for concentration at 24 h: 24 h after single oral dose 100 μmol/kg (40 mg/kg); for concentration at 1 h: 1 h after single oral dose 100 μmol/kg (40 mg/kg)
Procedure: To confirm the exposure and accumulation of 1b in target organs after oral administration, plasma and tissue concentrations of this compound were determined at 1, 2 and 24 h after a single oral dose at 100 μmol/kg (or 40 mg/kg) in mice. Compound 1b accumulated in the target organs such as liver and spleen at higher concentrations (C1h = 12.6 and 4.7 μM, respectively) than in the plasma (C1h = 1.9 μM) (Fig. 3). At 24 h post dose, 1b concentrations decreased substantially to 0.14 μM in the plasma and 0.6–0.7 μM in the liver and spleen.
Figure 3 Concentration of 1b in liver ( [drawing 15] ), spleen ( [drawing 16] ), kidney ( [drawing 17] ), and plasma ( [drawing 18] ) after oral administration at a dose of 100 μmol/kg (or 40 mg/kg) to mice. Bars and error bars represent means and standard errors of triplicate determinations, respectively.

[4] = tested on: intracellular L. amazonensis amastigotes; assay: Combination study of 1b and posaconazole against intracellular L. amazonensis amastigotes; assay type: cell-based; settings: Leishmania amazonensis; combination experiment, absence of posaconazole; read-out: IC50 of 1b alone
Description: Our efforts to explore the mechanism of antileishmanial action of the bis-AIAs led to the observation that DB766 is synergistic with posaconazole against Leishmania donovani in vitro[17]; other investigators reported in vitro antileishmanial synergy between posaconazole and the squalene synthase inhibitor E5700.[18] A combination study with 1b and posaconazole was thus performed against intracellular L. amazonensis amastigotes. […] Instead, the method described by Peters et al.[23] was employed to determine whether posaconazole enhances the potency of 1b. […] Although both assays involved incubating infected murine peritoneal macrophages with posaconazole for 72 h, de Macedo-Silva exposed peritoneal macrophages to L. amazonensis for a shorter time compared to our studies prior to removing extracellular parasites (2 h vs overnight). […] Thus, a likely explanation for the discrepancy between IC50 values for posaconazole against intracellular L. amazonensis in the two studies is the differences in assay conditions employed.
Figure 4 In vitro interactions between 1b and posaconazole against intracellular L. amazonensis. Results are presented as the IC50 of 1b alone and in different combinations. Bars and error bars show the mean and standard deviation of three independent experiments.

[5] = means ± standard errors of at least three independent experiments, values marked b: means ± range of two experiments, read-out: IC50 Intracellular L. amazonensis
[6] = murine J774 macrophages, means ± standard errors of at least three independent experiments, read-out: IC50 J774 macrophages

Row | Structure (SMILES) | IC50 [1, 5] | IC50 [2] | IC50 (J774 macrophages; [6]) | further results
1 | CC(C)Oc1cc(NC(=N)c2ccccn2)ccc1-c1ccco1 [Compound 1a] | 2100 ± 200 nM | 2400 ± 300 nM | 22 µM | 
2 | CC(C)Oc1cc(NC(=N)c2ccccn2)ccc1-c1ccc(-c2ccccc2)o1.CS(=O)(=O)O [Compound 1b, N-(3-isopropoxy-4-(5-phenylfuran-2-yl)phenyl)picolinimidamide methanesulfonate] | 130 ± 30 nM | 310 ± 10 nM | 13 µM | selectivity index for intracellular Leishmania compared to J774 murine macrophages (J774 macrophages): ≥ 25; in vivo tolerability (healthy BALB/c mice): well tolerated; suppression (inhibition) of liver parasitemia (L. donovani LV82): 37%; inhibition of liver parasitemia (L. donovani LV82; p.o. 50 mg/kg once daily for 5 days): 37%; inhibition of liver parasitemia (L. donovani LV82; p.o. 100 mg/kg/day for five days, vs control): 46%; concentration at 24 h ([3]; liver and spleen, read-out: concentration in the liver and spleen at 24 h post dose): 600 to 700 nM; concentration at 1 h ([3]; liver, read-out: liver concentration C1h): 12.6 µM; concentration at 1 h ([3]; plasma, read-out: plasma concentration C1h): 1.9 µM; concentration at 24 h ([3]; plasma, read-out: plasma concentration at 24 h post dose): 140 nM; concentration at 1 h ([3]; spleen, read-out: spleen concentration C1h): 4.7 µM; IC50 [4]: 260 ± 50 nM
3 | CC(C)Oc1cc(NC(=N)c2ccccn2)ccc1-c1ccc(-c2cncnc2)o1 [Compound 1c] | 1100 ± 300 nM | 2100 ± 400 nM | > 20 µM | 
4 | CC(C)Oc1cc(NC(=N)c2ccccn2)ccc1-c1ccc(-c2ccco2)o1.Cl [Compound 1d] | 250 ± 10 nM | 340 ± 50 nM | 8.5 ± 0.8 µM | selectivity index for intracellular Leishmania compared to J774 murine macrophages (J774 macrophages): ≥ 25; in vivo tolerability (healthy BALB/c mice): well tolerated; suppression (inhibition) of liver parasitemia (L. donovani LV82): 13%
5 | CC(C)Oc1cc(NC(=N)c2ccccn2)ccc1-c1ccc(-c2cccnc2)o1 [Compound 1e] | 900 ± 230 nM | 1200 ± 100 nM | > 50 µM | 
6 | CC(C)Oc1cc(NC(=N)c2ccccn2)ccc1-c1ccc(-c2ccncc2)o1 [Compound 1f] | 2700 ± 200 nM | 2600 ± 100 nM | 22 µM | 
7 | COc1ccc(-c2ccc(-c3ccc(NC(=N)c4ccccn4)cc3OC(C)C)o2)cc1 [Compound 1g] | 820 ± 310 nM | 900 ± 150 nM | 6.7 ± 0.9 µM | 
8 | CC(C)Oc1cc(NC(=N)c2ccccn2)ccc1-c1ccc(-c2ccc(F)cc2)o1 [Compound 1h] | 920 ± 190 nM | 1100 ± 100 nM | 8 ± 0.1 µM | 
9 | COc1ccccc1-c1ccc(-c2ccc(NC(=N)c3ccccn3)cc2OC(C)C)o1 [Compound 1i] | 1400 ± 200 nM | 1300 ± 100 nM | 5.3 ± 1 µM | 
10 | CC(C)Oc1cc(-c2ccc(-c3ccccc3)o2)ccc1NC(=N)c1ccccn1 [Compound 1j] | 1600 ± 300 nM | 1400 ± 300 nM | 13 µM | 
11 | CS(=O)(=O)O.N=C(Nc1ccc(-c2ccc(-c3ccccc3)o2)c(OC2CCCC2)c1)c1ccccn1 [Compound 1k] | 140 ± 10 nM | 170 ± 40 nM | 13 µM | selectivity index for intracellular Leishmania compared to J774 murine macrophages (J774 macrophages): ≥ 25; in vivo tolerability (healthy BALB/c mice): well tolerated; suppression (inhibition) of liver parasitemia (L. donovani LV82): 20%
12 | CCOc1cc(NC(=N)c2ccccn2)ccc1-c1ccc(-c2ccccc2)o1 [Compound 1l] | 980 ± 70 nM | 850 ± 170 nM | 6.6 ± 0.6 µM | 
13 | COc1cc(NC(=N)c2ccccn2)ccc1-c1ccc(-c2ccccc2)o1 [Compound 1m] | 3700 ± 1300 nM | 1400 ± 300 nM | 9 ± 2 µM | 
14 | N=C(Nc1ccc(-c2ccc(-c3ccccc3)o2)c(C(F)(F)F)c1)c1ccccn1 [Compound 1n] | > 10000 nM | 6100 ± 1400 nM | > 20 µM | 
15 | CC(C)Oc1cc(NC(=N)c2ccccn2)ccc1-c1ccc(-c2ccccc2)s1 [Compound 1o] | 2300 ± 300 nM | 2200 ± 500 nM | 6.9 ± 0.4 µM | 
16 | CC(C)Oc1cc(NC(=N)c2ncccn2)ccc1-c1ccc(-c2ccccc2)o1 [Compound 1p] | 650 ± 160 nM | 440 ± 60 nM | 12 µM | 
17 | COc1ccc(-n2cc(-c3ccc(NC(=N)c4ccccn4)cc3OC(C)C)nn2)cc1 [Compound 2] | 2900 ± 100 nM | 1600 ± 200 nM | 16 µM | 
18 | CC(C)Oc1cc(NC(=N)c2ccccn2)ccc1-c1cnc(-c2ccccc2)o1 [Compound 3] | 590 ± 60 nM | 1000 nM | 24 µM | 
19 | C[C@@H]1[C@H](O)[C@@H](C)/C=C/C=C/C=C/C=C/C=C/C=C/C=C/[C@H](O[C@@H]2O[C@H](C)[C@@H](O)[C@H](N)[C@@H]2O)C[C@@H]2O[C@](O)(C[C@@H](O)C[C@@H](O)[C@H](O)CC[C@@H](O)C[C@@H](O)CC(=O)O[C@H]1C)C[C@H](O)[C@H]2C(=O)O [amphotericin B, reference compound] | 120 ± 10 nM | 40 ± 3 nM |  | 
20 | CCCCCCCCCCCCCCCCOP(=O)([O-])OCC[N+](C)(C)C [miltefosine, reference compound] |  |  |  | inhibition of liver parasitemia (L. donovani LV82; i.p. 10 mg/kg/day for five days, 10 mg/kg/day): > 90%; inhibition of liver parasitemia (L. donovani LV82; i.p. 10 mg/kg/day for five days, listed as Milt, 10 mg/kg/day): 99%; inhibition of liver parasitemia (L. donovani LV82; i.p. 10 mg/kg/day for five days, listed as Miltefosine, 10 mg/kg/day): 98%; inhibition of liver parasitemia (L. donovani LV82; p.o. 10 mg/kg/day for five days, 10 mg/kg/day): > 90%; inhibition of liver parasitemia (L. donovani LV82; p.o. 10 mg/kg/day for five days, listed as Milt, 10 mg/kg/day): 96%
21 | COc1cc([C@@H]2c3cc4c(cc3[C@H](O)[C@H]3COC(=O)[C@H]23)OCO4)cc(OC)c1OC [podophyllotoxin, reference compound] |  |  |  | IC50 (J774 macrophages; J774, read-out: IC50 J774 macrophages): 0.024 ± 0.005 µM
22 | CC[C@@H]([C@H](C)O)n1ncn(-c2ccc(N3CCN(c4ccc(OC[C@@H]5CO[C@@](Cn6cncn6)(c6ccc(F)cc6F)C5)cc4)CC3)cc2)c1=O [posaconazole, reference compound] |  |  |  | IC50 ([1]; Peritoneal macrophage, infected murine peritoneal macrophages, 72 h, low solubility at higher concentrations, read-out: IC50 against intracellular L. amazonensis): > 10000 nM
